Measured values taken from DBAASP.
≈ marks a conversion by molar mass, not a printed value. Where “and” joins values, the source holds several entries; their conditions need not be identical. Equal values may be shown once.

Tests used:
Assay in all cases: ≥ marks a high value that may be exact or a test limit, other limits are often not marked, values filed in µg/mL are converted to µM
Vibrio alginolyticus = system: Vibrio alginolyticus
[1] = system: Staphylococcus aureus BCRC 10780
[2] = system: Streptococcus pneumoniae BCRC 10794
[3] = system: Vibrio harveyi BCRC 13812
Streptococcus agalactiae = system: Streptococcus agalactiae
Vibrio vulnificus 204 = system: Vibrio vulnificus 204
[4] = system: Micrococcus luteus BCRC 11034
[5] = system: Staphylococcus sp. BCRC 10451
[6] = system: Escherichia coli ATCC 35218
[7] = system: Pseudomonas aeruginosa ATCC 27853
[8] = system: Staphylococcus aureus ATCC 25325
[9] = system: Enterococcus faecalis ATCC 29212
[10] = system: Klebsiella pneumoniae ATCC 13883
[11] = system: Staphylococcus aureus ATCC 25923
[12] = system: Listeria monocytogenes ATCC 35152
[13] = system: Escherichia coli ATCC 25922
[14] = system: Clavibacter michiganensis subsp. michiganensis DSM 46294
[15] = system: Pseudomonas syringae pv. tomato DC3000
[16] = system: Pseudomonas corrugata DSM 7228
[17] = system: Pseudomonas syringae pv. syringae DSM 10604
[18] = system: Xanthomonas vesicatoria DSM 50861
[19] = system: Pectobacterium carotovorum subsp. carotovorum DSM 30168
Staphylococcus aureus = system: Staphylococcus aureus
[20] = system: Pseudomonas aeruginosa 919
[21] = system: Pseudomonas aeruginosa 910
[22] = system: Pseudomonas aeruginosa 253
[23] = system: Pseudomonas aeruginosa PAO1
[24] = system: Staphylococcus aureus ATCC 29213
[25] = system: Staphylococcus epidermidis PIA 8400
Staphylococcus aureus MR = system: Staphylococcus aureus MR
[26] = system: Neisseria gonorrhoeae FA19
[27] = system: Neisseria gonorrhoeae F62
[28] = system: Staphylococcus epidermidis ATCC 12228
[29] = system: Salmonella enterica subsp. enterica serovar Typhi DMST 22842
Vibrio cholerae non-O139 = system: Vibrio cholerae non-O139
Vibrio cholerae non-O1 = system: Vibrio cholerae non-O1
[30] = system: Streptococcus gordonii ATCC 10558
[31] = system: Streptococcus mutans GS-5
[32] = system: Candida glabrata ATCC 90030
Candida glabrata 65C = system: Candida glabrata 65C
[33] = system: Candida albicans ATCC 96112
[34] = system: Saccharomyces cerevisiae S288C
[35] = system: Cryptococcus neoformans CN2
[36] = system: Cryptococcus neoformans ATCC 52817
[37] = system: Streptococcus mutans UA159
[38] = system: Streptococcus sanguinis ATCC 49295

Which MIC (Vibrio alginolyticus) does the source give for CC[C@H](C)[C@H](NC(=O)[C@H](Cc1ccccc1)NC(=O)CNC(C)=O)C(=O)N[C@@H](Cc1ccccc1)C(=O)N[C@@H](Cc1cnc[nH]1)C(=O)N[C@H](C(=O)N[C@H](C(=O)N[C@@H](CCCCN)C(=O)NCC(=O)N[C@@H](CC(C)C)C(=O)N[C@@H](Cc1ccccc1)C(=O)N[C@@H](Cc1cnc[nH]1)C(=O)N[C@@H](C)C(=O)NCC(=O)N[C@@H](CCCCN)C(N)=O)[C@@H](C)CC)[C@@H](C)CC [GFIFHIIKGLFHAGK] here?
Its MIC is 14.8 µM (≈ 25.6 µg/mL).

And the MIC [1]?
The MIC was 14.8 µM (≈ 25.6 µg/mL).

And the MIC [2]?
Its MIC is 29.7 µM (≈ 51.2 µg/mL).

What about the MIC [3] of the same compound?
Its MIC is 7.42 µM (≈ 12.8 µg/mL).

What about the MIC (Streptococcus agalactiae) of the same compound?
The MIC was 29.7 µM (≈ 51.2 µg/mL).

And the MIC (Vibrio vulnificus 204)?
The MIC was at least 59.3 µM.

What about the MIC [4] of the same compound?
Its MIC is 14.8 µM (≈ 25.6 µg/mL).

What about the MIC [5] of the same compound?
The MIC was 3.71 µM (≈ 6.4 µg/mL).

Which MIC [6] does the source give for CC(C)[C@H](NC(=O)[C@H](Cc1cnc[nH]1)NC(=O)[C@H](C)NC(=O)[C@H](C)NC(=O)[C@H](CCCCN)NC(=O)[C@@H](N)CCCCN)C(=O)NCC(=O)N[C@@H](CCCCN)C(=O)N[C@@H](Cc1cnc[nH]1)C(=O)N[C@H](C(=O)NCC(=O)N[C@@H](CCCCN)C(=O)N[C@@H](C)C(=O)N[C@@H](C)C(=O)N[C@@H](CCCCN)C(=O)N[C@@H](CCCCN)C(=O)O)C(C)C [KKAAHVGKHVGKAAKK] here?
The MIC was at least 56.1 µM.

What about the MIC [7] of the same compound?
The MIC was 52 µM (≈ 86.2 µg/mL).

What about the MIC [8] of the same compound?
The MIC was at least 56.3 µM.

And the MIC [9]?
The MIC was 47.2 µM (≈ 78.3 µg/mL).

With CC(C)C[C@H](NC(=O)[C@H](CCCCN)NC(=O)[C@@H](N)CCCCN)C(=O)NCC(=O)N[C@@H](CCC(=O)O)C(=O)N1CCC[C@H]1C(=O)N[C@@H](CO)C(=O)N[C@@H](CS)C(=O)N[C@@H](CC(N)=O)C(=O)N[C@@H](CCCCN)C(=O)N[C@@H](CC(C)C)C(=O)N[C@@H](CCCCN)C(N)=O [KKLGEPSCNKLK] as the compound, how does the MIC [10] read?
Its MIC is 29.7 µM (≈ 40 µg/mL).

And the MIC [7]?
The MIC was 37.2 µM (≈ 50 µg/mL).

What about the MIC [11] of the same compound?
Its MIC is 18.6 µM (≈ 25 µg/mL).

And the MIC [12]?
The MIC was 22.3 µM (≈ 30 µg/mL).

And the MIC [13]?
Its MIC is 22.3 µM (≈ 30 µg/mL).

How did the MIC [14] turn out when CC[C@H](C)[C@H](NC(=O)[C@H](CC(C)C)NC(=O)[C@H](CCCN=C(N)N)NC(=O)[C@H](CCCN=C(N)N)NC(=O)[C@@H](N)CCCCN)C(=O)N[C@@H](Cc1ccccc1)C(=O)N[C@@H](CCCN=C(N)N)C(=O)N[C@H](C(=O)N[C@@H](CC(C)C)C(=O)N[C@@H](CCCCN)C(=O)N[C@@H](CC(C)C)C(=O)N[C@@H](Cc1ccccc1)C(=O)N[C@@H](Cc1ccccc1)C(=O)N[C@@H](CCCN=C(N)N)C(=O)N[C@@H](Cc1ccccc1)C(=O)N[C@@H](CC(C)C)C(=O)N[C@H](C(=O)N[C@@H](CCCCN)C(=O)N[C@@H](CCCCN)C(=O)N[C@@H](CCCN=C(N)N)C(N)=O)C(C)C)[C@@H](C)CC [KRRLIFRILKLFFRFLVKKR] was run?
Its MIC is 0.373 µM (≈ 1 µg/mL).

What about the MIC [15] of the same compound?
Its MIC is 3.73 µM (≈ 10 µg/mL).

What about the MIC [16] of the same compound?
Its MIC is 1.87 µM (≈ 5 µg/mL).

And the MIC [17]?
Its MIC is 3.73 µM (≈ 10 µg/mL).

What about the MIC [18] of the same compound?
Its MIC is 0.933 µM (≈ 2.5 µg/mL).

And the MIC [19]?
Its MIC is 3.73 µM (≈ 10 µg/mL).

With CC[C@H](C)[C@H](NC(=O)[C@H](CCCN=C(N)N)NC(=O)[C@H](Cc1c[nH]c2ccccc12)NC(=O)[C@H](CCCN=C(N)N)NC(=O)[C@H](CCCN=C(N)N)NC(=O)[C@@H](N)CCCCN)C(=O)N[C@@H](Cc1c[nH]c2ccccc12)C(=O)N[C@@H](CC(C)C)C(=O)N[C@H](C(N)=O)C(C)C [KRRWRIWLV] as the compound, how does the MIC (Staphylococcus aureus) read?
Its MIC is 6.09 µM (≈ 7.99 µg/mL).

And the MIC [20]?
Its MIC is 4 µM (≈ 5.25 µg/mL).

And the MIC [7]?
The MIC was 13 µM and 6.09 µM.

And the MIC [21]?
The MIC was 8 µM (≈ 10.5 µg/mL).

What about the MIC [22] of the same compound?
The MIC was 5.66 µM (≈ 7.42 µg/mL).

What about the MIC [23] of the same compound?
Its MIC is 4 µM (≈ 5.25 µg/mL).

What about the MIC [24] of the same compound?
The MIC was 6.09 µM (≈ 7.99 µg/mL).

What about the MIC [13] of the same compound?
Its MIC is 6.09 µM (≈ 7.99 µg/mL).

And the MIC [25]?
Its MIC is 3.05 µM (≈ 4 µg/mL).

And the MIC [9]?
Its MIC is 25.1 µM (≈ 33 µg/mL).

What about the MIC (Staphylococcus aureus MR) of the same compound?
The MIC was 13 µM and 25.1 µM.

CC(C)C[C@H](N)C(=O)N[C@H](C(=O)N[C@@H](Cc1ccc(O)cc1)C(=O)N[C@H]1CSSC[C@@H](C(=O)N[C@H](C(=O)N[C@H](C(=O)N[C@H](C(N)=O)C(C)C)[C@@H](C)O)C(C)C)NC(=O)[C@H](Cc2ccccc2)NC(=O)[C@H](CCCN=C(N)N)NC(=O)[C@H](CCCN=C(N)N)NC(=O)[C@H](CCCN=C(N)N)NC1=O)[C@@H](C)O [LTYCRRRFCVTV] was tested. Which MIC [26] did it give?
The MIC was 1.37 µM (≈ 2.07 µg/mL).

And the MIC [27]?
Its MIC is 0.45 µM (≈ 0.681 µg/mL).

What does the source list for CC(C)[C@H](NC(=O)CNC(=O)[C@@H](N)CC(N)=O)C(=O)N[C@@H](CCC(N)=O)C(=O)N1CCC[C@H]1C(=O)N[C@@H](Cc1c[nH]c2ccccc12)C(=O)N[C@@H](Cc1ccc(O)cc1)C(=O)N[C@@H](CCCCN)C(=O)N[C@@H](Cc1c[nH]c2ccccc12)C(=O)N[C@@H](Cc1c[nH]c2ccccc12)C(=O)N[C@@H](CCCCN)C(=O)N[C@@H](Cc1c[nH]c2ccccc12)C(=O)N[C@@H](Cc1c[nH]c2ccccc12)C(=O)N[C@@H](CCCCN)C(=O)N[C@@H](CCCCN)C(=O)N[C@@H](Cc1c[nH]c2ccccc12)C(=O)N[C@@H](Cc1c[nH]c2ccccc12)C(N)=O [NGVQPWYKWWKWWKKWW]?
MIC [28]: 36.5 µM (≈ 91 µg/mL); MIC [29]: ≥ 36.5 µM; MIC (Vibrio cholerae non-O139): ≥ 36.5 µM; MIC [11]: > 36.5 µM; MIC (Vibrio cholerae non-O1): ≥ 36.5 µM; MIC [13]: > 36.5 µM

Which MIC [30] does the source give for CC(C)C[C@H](NC(=O)[C@H](CS)NC(=O)[C@H](CCCCN)NC(=O)[C@H](Cc1ccc(O)cc1)NC(=O)[C@H](CO)NC(=O)[C@H](CCCCN)NC(=O)[C@@H](N)CCCN=C(N)N)C(=O)N[C@@H](Cc1cnc[nH]1)C(=O)N[C@@H](CCCCN)C(=O)N[C@@H](CCCN=C(N)N)C(=O)N[C@@H](CS)C(=O)N[C@@H](CCCN=C(N)N)C(=O)O [RKSYKCLHKRCR] here?
The MIC was at least 54.1 µM.

What about the MIC [31] of the same compound?
The MIC was at least 37.2 µM.

And the MIC [32]?
Its MIC is 15.8 µM (≈ 25 µg/mL).

And the MIC (Candida glabrata 65C)?
The MIC was 3.96 µM (≈ 6.25 µg/mL).

And the MIC [33]?
Its MIC is 3.96 µM (≈ 6.25 µg/mL).

What about the MIC [34] of the same compound?
The MIC was 3.96 µM (≈ 6.25 µg/mL).

And the MIC [35]?
The MIC was 1.98 µM (≈ 3.13 µg/mL).

And the MIC [36]?
Its MIC is 3.96 µM (≈ 6.25 µg/mL).

And the MIC [37]?
The MIC was 30.4 µM (≈ 48 µg/mL).

What about the MIC [38] of the same compound?
The MIC was at least 74.4 µM.
